pIC50: −log10 of the molar value.
Molecular target: T1, PDE5 enzyme (Homo sapiens, UniProt O76074)
T1 construct: The PDE5 enzyme isolated from human platelets; from tissue; host or cells: human platelets
Assay: Method 1: Human Platelet PDE5 Enzyme Inhibition Scintillation Proximity Assay
Format: biochemical
Conditions: METHOD 1: PDE5 IC50, Table B, WO2004096810 examples
Description: Method 1: Human Platelet PDE5 Enzyme Inhibition Scintillation Proximity Assay
An in vitro assay can be used to evaluate the inhibition of PDE5 enzyme activity by a test compound.
The PDE5 enzyme for use in the assay can be obtained from human platelets by appropriate modification of the method of Thompson, W J et al.; Biochemistry 18(23), 5228-5237, 1979, as described by Ballard S A et al.; J. Urology 159(6), 2164-2171, 1998. The PDE5 enzyme isolated from human platelets can be used to catalyze the hydrolysis of [^3H]cGMP (Amersham Biosciences) to 5′ nucleotide [^3H]GMP. The [^3H]GMP binds to yttrium silicate SPA beads (Amersham Biosciences) and is detected by scintillation counting. More specifically, the effect of the test compound at different concentrations can be evaluated in the assay by contacting the compound with a fixed amount of PDE5 enzyme in the presence of substrate (cGMP or cAMP in a 3:1 ratio unlabelled to [^3H]-labeled). Scintillation counting can be used as described above to determine relative PDE5 enzyme activity. The inhibition of PDE5 enzyme activity is then calculated relative to total PDE5 enzyme activity of uninhibited controls.
PDE5 IC50 Assay: 96-well microtiter plate format
• Buffer A: 20 mM Tris-HCl, 5 mM MgCl2, pH 7.4 • Buffer B: 2 mg/ml BSA in Buffer A (enzyme buffer) • cGMP substrate: Final concentration of 500 nM in assay The amount of ^3H-labeled substrate added depends upon the specific activity of [^3H]cGMP, and the cGMP substrate is diluted with a 10 mM stock of cold cGMP in Buffer A for a final substrate concentration of 500 nM in the assay. • PDE enzyme: Prepared in Buffer B. The dilution factor is determined by enzyme activity. • SPA beads: 20 mg/ml suspension prepared in dH2O.
Stocks of standard and test compounds are prepared at 5 mM in 100% DMSO. The compound is serially diluted in a dilution plate using a 10-point ½ log dilution format. 2 μl of the compound dilution is added in duplicate to the wells of the assay plate. 2 μl of 100% DMSO are added to designated control wells. 25 μl of Buffer A are added to all wells. 25 μl of Buffer B are added to the negative control wells. 25 μl of enzyme are added to the remaining wells. 50 μl of substrate are added to each well. Plates are sealed and incubated for 60 minutes on a plate shaker at 30 C. 50 plof SPA beads are added to stop the reaction. The plates are again sealed and shaken for 15 minutes to allow the beads to bind the GMP product. The beads are allowed to settle for 30 minutes and then read on a NXT TopCount scintillation counter. Data are analyzed with a curve fitting application for plate-based screening. Percent inhibition in this assay is calculated as follows: Inhibition (%)=[(mean maximum−compound value/(mean maximum−mean minimum)]×100.
The IC50 value is determined from sigmoid dose-response curves of enzyme activity versus compound concentration.

pIC50 | Structure (SMILES)
8.35 | COCCn1nc(C)c2nc(N3C[C@H](C)NC[C@H]3C)nc(Nc3cc(C)ccn3)c21 [WO2004096810 Example 133]
8.18 | COCCn1nc(C)c2nc(N3C[C@H](C)NC[C@H]3C)nc(Nc3ccc(C)cn3)c21 [WO2004096810 Example 134]
9.04 | COCCn1nc(C)c2nc(N3C[C@H](C)NC[C@H]3C)nc(Nc3ccncn3)c21 [WO2004096810 Example 135]
8.96 | CCOCCn1nc(C)c2nc(N3C[C@H](C)NC[C@H]3C)nc(Nc3cc(C)ccn3)c21 [WO2004096810 Example 136]
8.84 | CCOCCn1nc(C)c2nc(N3C[C@H](C)NC[C@H]3C)nc(Nc3ccc(C)cn3)c21 [WO2004096810 Example 137]
9.48 | CCOCCn1nc(C)c2nc(N3C[C@H](C)NC[C@H]3C)nc(Nc3ccncn3)c21 [WO2004096810 Example 138]
9.26 | CCOCCn1nc(CC)c2nc(N3C[C@H](C)NC[C@H]3C)nc(Nc3cc(C)ccn3)c21 [WO2004096810 Example 139]
8.71 | CCOCCn1nc(CC)c2nc(N3C[C@H](C)NC[C@H]3C)nc(Nc3ccc(C)cn3)c21 [WO2004096810 Example 140]
9.82 | CCOCCn1nc(CC)c2nc(N3C[C@H](C)NC[C@H]3C)nc(Nc3ccncn3)c21 [WO2004096810 Example 141]
7.64 | COCCn1nc(C)c2nc(N3C[C@@H](C)NC[C@@H]3C)nc(Nc3cc(C)ccn3)c21 [WO2004096810 Example 142]
7.09 | COCCn1nc(C)c2nc(N3C[C@@H](C)NC[C@@H]3C)nc(Nc3ccc(C)cn3)c21 [WO2004096810 Example 143]
8.27 | COCCn1nc(C)c2nc(N3C[C@@H](C)NC[C@@H]3C)nc(Nc3ccncn3)c21 [WO2004096810 Example 144]
8.15 | CCOCCn1nc(C)c2nc(N3C[C@@H](C)NC[C@@H]3C)nc(Nc3cc(C)ccn3)c21 [WO2004096810 Example 145]
7.49 | CCOCCn1nc(C)c2nc(N3C[C@@H](C)NC[C@@H]3C)nc(Nc3ccc(C)cn3)c21 [WO2004096810 Example 146]
8.61 | CCOCCn1nc(C)c2nc(N3C[C@@H](C)NC[C@@H]3C)nc(Nc3ccncn3)c21 [WO2004096810 Example 147]
8.36 | CCOCCn1nc(CC)c2nc(N3C[C@@H](C)NC[C@@H]3C)nc(Nc3cc(C)ccn3)c21 [WO2004096810 Example 148]
7.46 | CCOCCn1nc(CC)c2nc(N3C[C@@H](C)NC[C@@H]3C)nc(Nc3ccc(C)cn3)c21 [WO2004096810 Example 149]
8.74 | CCOCCn1nc(CC)c2nc(N3C[C@@H](C)NC[C@@H]3C)nc(Nc3ccncn3)c21 [WO2004096810 Example 150]
7.66 | CCc1nn(CCOC)c2c(Nc3ccc(C)cn3)nc(N3CCNCC3)nc12 [WO2004096810 Example 151]
7.92 | CCc1nn(CCOC)c2c(Nc3cc(C)ccn3)nc(N3CCNCC3)nc12 [WO2004096810 Example 152]
7.71 | CCc1nn(CCOC)c2c(Nc3cc(C)ccn3)nc(NCCn3cccn3)nc12 [WO2004096810 Example 153]
7.90 | CCc1nn(CCOC)c2c(Nc3cc(C)ccn3)nc(N[C@H](C)CO)nc12 [WO2004096810 Example 154]
7.87 | COCCn1nc(C)c2nc(N(C)[C@@H]3CCN(C)C3)nc(Nc3cc(C)ccn3)c21 [WO2004096810 Example 155]
8.74 | CCOCCn1nc(C)c2nc(N(C)[C@@H]3CCN(C)C3)nc(Nc3cc(C)ccn3)c21 [WO2004096810 Example 156]
7.78 | CCOCCn1nc(C)c2nc(N(C)[C@@H]3CCN(C)C3)nc(Nc3ccncn3)c21 [WO2004096810 Example 157]
9.15 | CCOCCn1nc(CC)c2nc(N(C)[C@@H]3CCN(C)C3)nc(Nc3cc(C)ccn3)c21 [WO2004096810 Example 158]
7.79 | CCOCCn1nc(CC)c2nc(N(C)[C@@H]3CCN(C)C3)nc(Nc3ccc(C)cn3)c21 [WO2004096810 Example 159]

Reference: patent publication US8518956B2, “1-(1-(2-ethoxyethyl)-3-ethyl-7-(4-methylpyridin-2-ylamino)-1H-pyrazolo[4,3-d]pyrimidin-5-yl) piperidine-4-carboxylic acid and salts thereof” (priority 2005, dated 2013)
